Results from ChEMBL document CHEMBL3877319, “Synthesis of Ofornine mimics from natural product l-vasicine as anti-hypertensive agents” (Bioorg Med Chem, 2017).

Columns and labels:
Assay type in all cases: functional
Rattus norvegicus [1] = assay: Anti-hypertensive activity in Wistar rat assessed as systolic blood pressure at 10 mg/kg, iv after 150 mins (reference value: 110 to 124.6 mmHg)
Rattus norvegicus [2] = assay: Anti-hypertensive activity in Wistar rat assessed as systolic blood pressure at 10 mg/kg, iv after 60 mins (reference value: 110 to 124.6 mmHg)
Rattus norvegicus [3] = assay: Anti-hypertensive activity in Wistar rat assessed as systolic blood pressure at 10 mg/kg, iv after 5 mins (reference value: 110 to 124.6 mmHg)
Rattus norvegicus [4] = assay: Anti-hypertensive activity in Wistar rat assessed as diastolic blood pressure at 10 mg/kg, iv after 5 mins (reference value: 77.15 to 94.4 mmHg)
Rattus norvegicus [5] = assay: Anti-hypertensive activity in Wistar rat assessed as diastolic blood pressure at 10 mg/kg, iv after 120 mins (reference value: 77.15 to 94.4 mmHg)
Rattus norvegicus [6] = assay: Anti-hypertensive activity in Wistar rat assessed as diastolic blood pressure at 10 mg/kg, iv after 30 mins (reference value: 77.15 to 94.4 mmHg)
Rattus norvegicus [7] = assay: Anti-hypertensive activity in Wistar rat assessed as diastolic blood pressure at 10 mg/kg, iv after 60 mins (reference value: 77.15 to 94.4 mmHg)
Rattus norvegicus [8] = assay: Anti-hypertensive activity in Wistar rat assessed as systolic blood pressure at 10 mg/kg, iv after 180 mins (reference value: 110 to 124.6 mmHg)
Rattus norvegicus [9] = assay: Anti-hypertensive activity in Wistar rat assessed as diastolic blood pressure at 10 mg/kg, iv after 180 mins (reference value: 77.15 to 94.4 mmHg)
Rattus norvegicus [10] = assay: Anti-hypertensive activity in Wistar rat assessed as systolic blood pressure at 10 mg/kg, iv after 30 mins (reference value: 110 to 124.6 mmHg)
Rattus norvegicus [11] = assay: Anti-hypertensive activity in Wistar rat assessed as systolic blood pressure at 10 mg/kg, iv after 15 mins (reference value: 110 to 124.6 mmHg)
Rattus norvegicus [12] = assay: Anti-hypertensive activity in Wistar rat assessed as diastolic blood pressure at 10 mg/kg, iv after 15 mins (reference value: 77.15 to 94.4 mmHg)
Rattus norvegicus [13] = assay: Anti-hypertensive activity in Wistar rat assessed as systolic blood pressure at 10 mg/kg, iv after 120 mins (reference value: 110 to 124.6 mmHg)
Rattus norvegicus [14] = assay: Anti-hypertensive activity in Wistar rat assessed as diastolic blood pressure at 10 mg/kg, iv after 150 mins (reference value: 77.15 to 94.4 mmHg)

Row | Compound | Activity (Rattus norvegicus [1]) | Activity (Rattus norvegicus [2]) | Activity (Rattus norvegicus [3]) | Activity (Rattus norvegicus [4]) | Activity (Rattus norvegicus [5]) | Activity (Rattus norvegicus [6]) | Activity (Rattus norvegicus [7]) | Activity (Rattus norvegicus [8]) | Activity (Rattus norvegicus [9]) | Activity (Rattus norvegicus [10]) | Activity (Rattus norvegicus [11]) | Activity (Rattus norvegicus [12]) | Activity (Rattus norvegicus [13]) | Activity (Rattus norvegicus [14])
1 | CCCCCCc1ccc(-c2cn([C@@H]3CCN(C(=O)c4ccccc4Nc4ccncc4)C3)nn2)cc1 | 118.7 mmHg | 111.9 mmHg | 94.4 mmHg | 74.8 mmHg | 91.75 mmHg | 83.6 mmHg | 83.25 mmHg | 119.9 mmHg | 91 mmHg | 111.6 mmHg | 104.9 mmHg | 81.7 mmHg | 118.9 mmHg | 92.8 mmHg
2 | O=C(c1ccccc1Nc1ccncc1)N1CC[C@@H](n2cc(C3CC3)nn2)C1 | 110.4 mmHg | 108.2 mmHg | 116.4 mmHg | 77.08 mmHg | 86.96 mmHg | 76.29 mmHg | 73.85 mmHg | 117.2 mmHg | 86.32 mmHg | 112.2 mmHg | 115.1 mmHg | 79.63 mmHg | 111.6 mmHg | 85.74 mmHg
3 | [N-]=[N+]=N[C@@H]1CCN(C(=O)c2ccccc2Nc2ccncc2)C1 |  | 111.6 mmHg | 86.15 mmHg | 59.8 mmHg | 80.3 mmHg | 79.7 mmHg | 81.4 mmHg | 115.3 mmHg |  | 108.4 mmHg | 97 mmHg | 67.75 mmHg | 115.6 mmHg | 77.3 mmHg
4 | O=C(c1ccccc1-n1cc(-c2ccc(-c3ccccc3)cc2)nn1)N1CC[C@@H](O)C1 | 116.3 mmHg | 110.1 mmHg | 112 mmHg | 82 mmHg | 87.8 mmHg | 79.1 mmHg | 86.8 mmHg | 109.6 mmHg | 78.3 mmHg | 106.9 mmHg | 113 mmHg | 82 mmHg | 107.3 mmHg | 81.3 mmHg
5 | O=C(c1ccccc1-n1cc(C2CC2)nn1)N1CC[C@@H](O)C1 | 121.7 mmHg | 120 mmHg | 113.8 mmHg | 79.6 mmHg | 83.3 mmHg | 84.35 mmHg | 82.75 mmHg | 123.7 mmHg | 86.6 mmHg | 118.1 mmHg | 114.91 mmHg | 90.7 mmHg | 120.4 mmHg | 84.3 mmHg
6 | CCCCCc1cn([C@@H]2CCN(C(=O)c3ccccc3Nc3ccncc3)C2)nn1 | 114.9 mmHg | 105.4 mmHg | 96.7 mmHg | 73.2 mmHg | 80.5 mmHg | 77.6 mmHg | 80.2 mmHg | 117.6 mmHg | 85.4 mmHg | 103.8 mmHg | 101.7 mmHg | 80.5 mmHg | 109.8 mmHg | 81.9 mmHg
7 | CCCc1cn([C@@H]2CCN(C(=O)c3ccccc3Nc3ccncc3)C2)nn1 | 119.9 mmHg | 114.8 mmHg | 82.7 mmHg | 44.5 mmHg | 82.7 mmHg | 78.5 mmHg | 83.7 mmHg | 118.8 mmHg | 84.5 mmHg | 118.8 mmHg | 86.8 mmHg | 53.4 mmHg | 118.1 mmHg | 81.5 mmHg
8 | Nc1ccccc1C(=O)N1CCC(O)C1 (single isomer, unassigned) | 121.4 mmHg | 119.5 mmHg | 107.8 mmHg | 80.42 mmHg | 79.57 mmHg | 82.62 mmHg | 82.62 mmHg | 123.1 mmHg | 86.45 mmHg | 124.3 mmHg | 123.4 mmHg | 86.88 mmHg | 118.8 mmHg | 79.95 mmHg
9 | O=C(c1ccccc1Nc1ccncc1)N1CCCCC1 [OFORNINE] | 113.8 mmHg | 88.6 mmHg | 83.3 mmHg | 53.3 mmHg | 64.5 mmHg | 62.8 mmHg | 64.05 mmHg | 117 mmHg | 90.8 mmHg | 89.5 mmHg | 89.45 mmHg | 61 mmHg | 90.5 mmHg | 77.9 mmHg
10 | O[C@H]1CCN(Cc2ccccc2Nc2ccncc2)C1 | 122.9 mmHg | 115.7 mmHg | 120.4 mmHg | 77.06 mmHg | 75.97 mmHg | 75.5 mmHg | 81.18 mmHg | 124.4 mmHg | 83.32 mmHg | 120.6 mmHg | 119.9 mmHg | 73.74 mmHg | 118.2 mmHg | 76.6 mmHg
11 | O=C(c1ccccc1Nc1ccncc1)N1CC[C@@H](n2cc(-c3ccc(F)cc3)nn2)C1 | 124.6 mmHg | 117.6 mmHg | 46.6 mmHg | 42.9 mmHg | 86.3 mmHg | 84.63 mmHg | 84.8 mmHg | 128.9 mmHg | 90.58 mmHg | 108.6 mmHg | 106.2 mmHg | 73.8 mmHg | 122.6 mmHg | 90.3 mmHg
12 | CCCCCc1ccc(-c2cn([C@@H]3CCN(C(=O)c4ccccc4Nc4ccncc4)C3)nn2)cc1 |  | 111.6 mmHg | 86.15 mmHg | 59.8 mmHg | 80.3 mmHg | 79.7 mmHg | 81.4 mmHg | 115.3 mmHg |  | 108.4 mmHg | 97 mmHg | 67.75 mmHg | 115.6 mmHg | 77.3 mmHg
13 | O=C(c1ccccc1-n1cc(-c2ccc(F)cc2)nn1)N1CC[C@@H](O)C1 | 121.8 mmHg | 122.4 mmHg | 103.3 mmHg | 76.5 mmHg | 88 mmHg | 77.9 mmHg | 95 mmHg | 121.5 mmHg | 90.8 mmHg | 118.9 mmHg | 120.1 mmHg | 74.8 mmHg | 121.6 mmHg | 88.8 mmHg
14 | O=C(c1ccccc1Nc1ccncc1)N1CC[C@@H](n2cc(-c3ccccc3)nn2)C1 | 120.8 mmHg | 109.8 mmHg | 85.3 mmHg | 58.7 mmHg | 80 mmHg | 70.2 mmHg | 72.2 mmHg | 121.2 mmHg | 86.75 mmHg | 100.7 mmHg | 94.3 mmHg | 65.5 mmHg | 116.2 mmHg | 80.15 mmHg
15 | O[C@@H]1CCN(Cc2ccccc2)C1 | 114.6 mmHg | 121.4 mmHg | 107.9 mmHg | 52.65 mmHg | 74.19 mmHg | 70.89 mmHg | 77.25 mmHg | 118.9 mmHg | 83.15 mmHg | 119.3 mmHg | 116.4 mmHg | 57.86 mmHg | 112.3 mmHg | 78.62 mmHg
16 | C[Si](C)(C)O[C@@H]1CCNC1 | 122.4 mmHg | 117.6 mmHg | 119.9 mmHg | 84.74 mmHg | 89.49 mmHg | 87.98 mmHg | 83.9 mmHg | 121.6 mmHg | 84.75 mmHg | 119.9 mmHg | 119.7 mmHg | 85.42 mmHg | 118.5 mmHg | 88.4 mmHg
